Measured values: US20170143753A1, “SOPHOROLIPID ESTER CHAIN LENGTH DEPENDENCE ON THE INHIBITION OF HUMAN PATHOGENS” (Syntehzyme LLC, priority 2011, published 2017)
Converted amounts (≈) assume the structure as drawn. Like-named read-outs stand apart in the source and are kept apart here.

Key:
B. Cereus = assay: Minimum inhibitory concentration (MIC), broth microdilution; format: cell-based; details: for MIC: Bacillus cereus, read-out: Minimum Inhibitory Concentration (MIC) B. Cereus; for activity against B. Cereus (in words): MIC assay, up to 128 μg/mL
Experimental: (§1) Sophorolipid ester derivatives, as well as the diacetate lactonic sophorolipid have inhibitory activity against a range of human pathogenic bacteria, which was confirmed by experiments and observations. Sophorolipid samples were dissolved in pure DMSO to a final concentration of 2.56 mg/mL that was used as a stock solution. Except the first row, the wells of a 96-well microplate were loaded with 100 μL of sterilized PBS buffer. The stock solution (20 μL) and sterilized PBS buffer pH 7.4 (180 μL) was added into the first row of the 96-well microplate and serially diluted (2-fold dilution) from 256 μg/mL to 2 μg/mL using PBS buffer. After serial dilution, 100 μL of fresh bacteria cells (10^6 cfu/mL) suspended in Soy broth (SB) or Mueller Hinton broth (MHB) culture medium were added to each well and the plates were incubated for 16 or 30 hours. Wells with only cells in 5% DMSO in PBS/medium (no SL) and with only 5% DMSO in PBS/medium (no SL and no cells) were used as positive and negative controls, respectively. […] Lactonic SL as well as all SL esters except SL hexyl ester (no activity against all strains) and SL pentyl ester (no activity against B. Subtilis) were active against all three gram-positive bacterial strains tested (B. Cereus, B. Subtilis, Listeria innocua). The unexpected result in Table 2 is that, as the chain length of the sophorolipid ester increased from methyl to ethyl, propyl and butyl, the MIC values for B. Cereus, B. Subtilis and L. Innocua decrease. The pentyl ester has similarly low MIC values as the butyl ester derivative for B. Cereus and L. Innocua.

Listeria innocua = assay: as above; format: cell-based; details: for MIC: Listeria innocua, read-out: Minimum Inhibitory Concentration (MIC) Listeria Innocua; for activity against Listeria innocua (in words): MIC assay, up to 128 μg/mL
Experimental: as §1

B. Subtilis = assay: as above; format: cell-based; details: for MIC: Bacillus subtilis, read-out: Minimum Inhibitory Concentration (MIC) B. Subtilis; for activity against B. Subtilis (in words): MIC assay, up to 128 μg/mL
Experimental: as §1

[1] = Solubility in water / aqueous systems (statement); format: physicochemical; details: aqueous formulations
human pathogen bacteria = assay: Bactericidal activity (time-kill study); format: cell-based; details: roughly 10^7 cfu/mL in PBS pH 7.4; for time to reach 3 log reduction: time-kill, 2×MIC and 4×MIC; for cells killed: at 2×MIC and 4×MIC, within 1 hour
Experimental: Bactericidal activity (time-kill study): an in vitro assay was performed to test the bactericidal effect of each sophorolipid derivatives on human pathogen bacteria viability. […] After 15 min, 45 min, 1 h and 3 h incubation, cells were spread on agar plates, incubated at 37° C. for 18 hours and examined for colonies. An untreated cells vial (i.e. no SL added) was used as the control.
To further investigate if the growth inhibition by sophorolipid derivatives is associated with cell death, i.e. if sophorolipid derivatives are bactericidal or bacteriostatic, time-kill studies were performed. […] Moreover, the killing rate was higher for these sophorolipid ester derivatives than natural di-acetylated lactonic sophorolipid that requires almost 2 hours to reach a 3 log reduction.

[2] = prior art statement; cited from earlier work
[3] = incubation time 16 h, 10^6 cfu/mL, no visible growth
[4] = incubation time 30 h, 10^6 cfu/mL, no visible growth

Compound | MIC (B. Cereus; [3]) | MIC (Listeria innocua; [4]) | MIC (B. Subtilis; [3]) | activity against B. Subtilis (in words) (B. Subtilis) | time to reach 3 log reduction (human pathogen bacteria) | cells killed (human pathogen bacteria) | also measured
CC(=O)OCC1OC2OC(C)CCCCCC/C=C\CCCCCCCC(=O)OC3C(COC(C)=O)OC(OC2C(O)C1O)C(O)C3O (centres unmarked) [Lactonic SL, LSL 6′,6″-diacetate, reference compound] | 16 µg/mL (≈ 23.2 µM) | 32 µg/mL (≈ 46.5 µM) | 8 µg/mL (≈ 11.6 µM) | active | ~2 hour | – | activity against B. Cereus (in words) (B. Cereus): active; activity against Listeria innocua (in words) (Listeria innocua): active; water solubility (in words) [1]: low water solubility; solubility in aqueous systems (in words) [2]: very low solubility
CCCCOC(=O)CCCCCCC/C=C\CCCCCCC(C)OC1OC(CO)C(O)C(O)C1OC1OC(CO)C(O)C(O)C1O (centres unmarked) [SL Butyl ester] | 8 µg/mL (≈ 11.8 µM) | 8 µg/mL (≈ 11.8 µM) | 8 µg/mL (≈ 11.8 µM) | – | ≤ 1 hour | more than 99.9% | –
CCOC(=O)CCCCCCC/C=C\CCCCCCC(C)OC1OC(CO)C(O)C(O)C1OC1OC(CO)C(O)C(O)C1O (centres unmarked) [SL Ethyl ester] | 32 µg/mL (≈ 49.2 µM) | 32 µg/mL (≈ 49.2 µM) | 32 µg/mL (≈ 49.2 µM) | – | – | – | –
COC(=O)CCCCCCC/C=C\CCCCCCC(C)OC1OC(CO)C(O)C(O)C1OC1OC(CO)C(O)C(O)C1O (centres unmarked) [SL Methyl ester] | – | – | – | – | ≤ 1 hour | more than 99.9% | MIC (B. Cereus; 16 h): 32 µg/mL (≈ 50.3 µM); MIC (Listeria innocua; 30 h): 64 µg/mL (≈ 101 µM); MIC (B. Subtilis; 16 h): 32 µg/mL (≈ 50.3 µM)
CCCOC(=O)CCCCCCC/C=C\CCCCCCC(C)OC1OC(CO)C(O)C(O)C1OC1OC(CO)C(O)C(O)C1O (centres unmarked) [SL Propyl ester] | 16 µg/mL (≈ 24.1 µM) | 25 µg/mL (≈ 37.6 µM) | 25 µg/mL (≈ 37.6 µM) | – | ≤ 1 hour | more than 99.9% | –
SL Hexyl ester | – | – | – | no activity | – | – | activity against B. Cereus (in words) (B. Cereus): no activity; Minimum Inhibitory Concentration (MIC) B. Cereus (B. Cereus; [3]): >128 µg/mL; activity against Listeria innocua (in words) (Listeria innocua): no activity; Minimum Inhibitory Concentration (MIC) Listeria Innocua (Listeria innocua; [4]): >128 µg/mL; Minimum Inhibitory Concentration (MIC) B. Subtilis (B. Subtilis; [3]): >128 µg/mL
SL Pentyl ester | – | – | – | no activity | – | – | Minimum Inhibitory Concentration (MIC) B. Cereus (B. Cereus; [3]): 8 µg/mL; Minimum Inhibitory Concentration (MIC) Listeria Innocua (Listeria innocua; [4]): 8 µg/mL; Minimum Inhibitory Concentration (MIC) B. Subtilis (B. Subtilis; [3]): >128 µg/mL; Minimum Inhibitory Concentration (MIC) B. Subtilis (B. Subtilis; incubation time 16 h, 10^6 cfu/mL, no visible growth, listed as pentyl ester): > 128 µg/mL
